The record followed here is US6376488B1, “Benzoxazine α-1 adrenergic compounds” (Abbott Laboratories, priority 2000, dated 2002).

One data set addresses T1, α1a (rat) adrenoreceptor (Rattus norvegicus, UniProt P43140).
T1 sequence (P43140 1-466): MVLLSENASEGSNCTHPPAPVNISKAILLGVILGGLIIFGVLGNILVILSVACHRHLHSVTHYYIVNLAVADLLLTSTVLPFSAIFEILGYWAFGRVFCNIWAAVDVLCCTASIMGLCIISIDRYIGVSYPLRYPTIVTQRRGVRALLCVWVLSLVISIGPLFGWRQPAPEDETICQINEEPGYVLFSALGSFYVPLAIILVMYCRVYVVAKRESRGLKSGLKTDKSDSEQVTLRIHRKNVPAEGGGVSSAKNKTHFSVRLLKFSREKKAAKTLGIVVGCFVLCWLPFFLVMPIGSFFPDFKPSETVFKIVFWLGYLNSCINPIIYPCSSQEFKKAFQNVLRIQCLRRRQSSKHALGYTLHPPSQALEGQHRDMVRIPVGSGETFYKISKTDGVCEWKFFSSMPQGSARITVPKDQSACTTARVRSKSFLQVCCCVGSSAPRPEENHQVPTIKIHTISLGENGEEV
In words: [3H]-prazosin radioligand binding, cloned α1a (rat) adrenoreceptor in LTK cells. The note with it: cloned receptor in LTK cell membranes, [3H]prazosin 0.2 nM. From the text: (§1) The cDNA clones encoding the α1, adrenoreceptors were obtained from TULCO (Triangle Universities Licensing Consortium, Research Triangle Park, N.C.) and inserted into the eukaryotic expression vector SnaB30. In this vector, expression of the adrenoreceptor gene is under the transcriptional control of an SV40 early promoter. Positive drug selection is provided by a neomycin-resistance gene. Mouse fibroblast cells (LTK) were transfected with the α1 expression plasmids and grown in Dulbecco's modified Eagle's medium (DMEM) containing 10% fetal calf serum and 30 μM G418. […] Stable single cell clones derived from the parental lines were screened in adrenoreceptor binding assays to identify clones having high adrenoreceptor density. Roller bottle cultures of the cloned lines were used to provide cell membranes for subsequent adrenoreceptor binding characterization studies. A cell line containing the SnaB30 vector expressing the human erythropoietin gene served as a negative control.
(§2) For adrenoreceptor binding assays, large scale membrane preparations were utilized in which 6 million cells were seeded into small (450 cm^2) Coming tissue culture roller bottles. DMEM (200 mL) containing 10% fetal calf serum and 300 μM G418 were added to each roller bottle. A 95% air/5% CO2 gas mixture (sterile) was injected into each roller bottle prior to sealing, and the bottles were then incubated at 37° C. on a roller rack for 5 days. Cells were refed with fresh medium after 3 days in culture.
(§3) On the fifth day of culture, growth medium was removed from cells grown in roller bottles, and the cells were washed twice with PBS (Sigma, 120 mM NaCl, 2.7 mM KCl, 10 mM Na2HPO4-NaH2PO4, pH=7.4). Cells were detached from the roller bottles by incubating for 15 minutes at 37° C. in a Tris-EDTA solution (10 mM Tris, 100 mM NaCl, 1 mM EDTA, pH=7.4). The cell suspension from each roller bottle was decanted into tared centrifuge tubes and kept on ice. An aliquot of each cell suspension was generally taken for cell counting. Cells were centrifuged at 3000×G for 5 minutes at 2-4° C., washed with PBS and recentrifuged. The supernatant was decanted, and the pellet was weighed to determine the wet weight of cells. Cells were washed a final time in 40 vol 5 mM Tris-HCl, 5 mM EDTA, pH=7.7 and centrifuged at 40,000×G for 10 minutes (“vol” indicates volume/weight, e.g., a “vol” of 40 would indicate that the one gram of cells were washed with 40 mls of buffer). Cells were homogenized in of 50 mM Tris-HCl, 5 mM EDTA (pH=7.4) (10 mL) and diluted to 40 mL/tube. Homogenates were centrifuged at 40,000×G for 10 minutes. The supernatant was decanted and the pellets rehomogenized in 50 mM Tris-HCl (pH=7.4) and centrifuged as before.
(§4) Following equilibration, bound radioligand was separated from free on GF/B filters (presoaked in 0.5% polyethyleneimine) using ither a Brandel or Packard cell harvester. Radioactivity was determined by standard liquid scintillation techniques.

The target of data set [1] is T2, α1b (Hamster) adrenoreceptor (Mesocricetus auratus, UniProt P18841).
T2 sequence (P18841 1-515): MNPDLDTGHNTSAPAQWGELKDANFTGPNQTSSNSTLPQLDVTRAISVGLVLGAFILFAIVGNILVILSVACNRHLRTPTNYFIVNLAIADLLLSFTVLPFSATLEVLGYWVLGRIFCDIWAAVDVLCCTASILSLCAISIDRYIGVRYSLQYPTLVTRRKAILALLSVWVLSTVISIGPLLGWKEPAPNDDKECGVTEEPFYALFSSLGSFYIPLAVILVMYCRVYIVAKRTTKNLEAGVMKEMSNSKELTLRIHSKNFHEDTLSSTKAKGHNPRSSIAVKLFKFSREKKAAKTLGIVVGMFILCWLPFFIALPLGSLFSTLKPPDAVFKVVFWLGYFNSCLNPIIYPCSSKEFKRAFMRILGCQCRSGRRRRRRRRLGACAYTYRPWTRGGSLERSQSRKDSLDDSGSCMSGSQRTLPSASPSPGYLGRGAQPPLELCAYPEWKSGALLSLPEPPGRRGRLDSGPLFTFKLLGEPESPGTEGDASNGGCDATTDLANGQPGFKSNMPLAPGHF
In words: [3H]-prazosin radioligand binding, cloned α1b (hamster) adrenoreceptor in LTK cells. As to conditions: cloned receptor in LTK cell membranes, [3H]prazosin 0.2 nM.
From the text: as §1, §2, §3, §4

Each structure is given as a SMILES string.

The molecule `Cl.Cl.O=c1[nH]c2c(sc3cccnc32)c(=O)n1CCCN1CCN2c3ccccc3OCC2C1` (single isomer, unassigned; (+)) [Example 1, (+) 3-[3-(1,2,4a,5-tetrahydropyrazino[2,1-c][1,4]benzoxazin-3(4H)-yl)propyl]pyrido[2′,3′:4,5]thieno[3,2-d]pyrimidine-2,4(1H,3H)-dione dihydrochloride] showed a melting point of 278 to 282 °C. This molecule also came in with a Ki on α1a (rat) adrenoreceptor of 1.84 nM. The same molecule returned a Ki in data set [1] of 14.3 nM.

On to `COc1cccc2c1N1CCN(CCn3c(=O)[nH]c4c(sc5ncc(Cl)nc54)c3=O)CC1CO2.Cl.Cl` (single isomer, unassigned; (-)) [Example 13, (−) 3-[2-(10-methoxy-1,2,4a,5-tetrahydropyrazino[2,1-c][1,4]benzoxazin-3(4H)-yl)ethyl]-8-chloropyrazino[2′,3′:4,5]thieno[3,2-d]pyrimidine-2,4(1H,3H)-dione dihydrochloride], for which the melting point was 280 to 282 °C. On α1a (rat) adrenoreceptor, the Ki amounted to 1.55 nM. Further, in data set [1], the Ki came to 39.1 nM.

`COc1cccc2c1N1CCN(CCCCn3c(=O)[nH]c4c(sc5ncc(Cl)nc54)c3=O)CC1CO2.Cl.Cl` (single isomer, unassigned; (-)) [Example 12, (−) 3-[4-(10-methoxy-1,2,4a,5-tetrahydropyrazino[2,1-c][1,4]benzoxazin-3(4H)-yl)butyl]-8-chloropyrazino[2′,3′:4,5]thieno[3,2-d]pyrimidine-2,4(1H,3H)-dione dihydrochloride]: the melting point was in the range of 198 to 201 °C. In addition, the inhibition constant Ki on α1a (rat) adrenoreceptor turned out to be 0.648 nM. The same molecule displayed a Ki in data set [1] of 8.91 nM.

With `COc1cccc2c1N1CCN(CCn3c(=O)[nH]c4c(sc5cccnc54)c3=O)CC1CO2.Cl.Cl` (single isomer, unassigned; (-)) [Example 7, (−) 3-[2-(10methoxy-1,2,4a,5-tetrahydropyrazino[2,1-c][1,4]benzoxazin-3(4H)-yl)ethyl]pyrido[2′,3′:4,5]thieno[3,2-d]pyrimidine-2,4(1H,3H)-dione dihydrochloride], the melting point was in the range of 297 to 298 °C. The Ki at α1a (rat) adrenoreceptor was 0.864 nM. In data set [1], affinity was put at a Ki of 6.89 nM.

In general, melting point refers to the temperature, or range, at which the solid turns liquid. For orientation: Ki means a dissociation constant, usually derived from enzyme kinetics or from competition with a known ligand. Higher therefore signals a looser hold on the target.
